Results from patent publication US7022315B2, “Administration of a thiol-based chemoprotectant compound” (Oregon Health & Science University, priority 2000, dated 2006).
Values after ≈ are worked out from the molar mass of the structure shown. Read-outs that look alike come from different tables or passages of the source.

Key:
[1] = test system: Caspase-2 activity in B.5 LX-1 cells; experiment: Caspase-2 enzymatic activity (apoptosis); type: cell-based; conditions: for increase in caspase activity: variable between experiments
Protocol: (§1) FIGS. 7A and 7B show the effect of cytoenhancement and chemoprotection on apoptosis. […] Apoptosis was assessed in cultured LX-1 SCLC cells pretreated for 18 hours with or without 100 μM BSO. The experimental conditions were no addition (open bars), melphalan (10 μg/ml, striped bars) or melphalan (10 μg/ml) plus N-acetylcysteine (1000 μg/ml) (cross hatched bars) for 20 h prior to harvest. Caspase-2 activity is expressed as percentage activity in untreated control samples (mean±standard deviation, n=3). TUNEL staining is expressed as the percentage of cells showing positive staining.
(§2) Apoptosis was evaluated by measuring Caspase-2 enzymatic activity and by in situ TUNEL staining. […] The increase in caspase activity was variable between experiments and ranged from 50–100% at 7–8 h to 250–600% at 20–24 h after treatment with melphalan. […] In the experiment shown in FIG. 7B, TUNEL staining after melphalan treatment was positive in 29 of 3643 cells, compared to 7 of 4395 cells in the untreated control, and BSO treatment prior to melphalan increased the positive staining to 800 of 1699 cells. […] In both assays, activity was maximal with low doses of melphalan, or with a 1 hour pulse treatment with the doses used in the cytotoxicity assays.
Samples of the cells used in the caspase and TUNEL assays were also evaluated for membrane permeability by trypan blue exclusion.

[2] = test system: GM294 human fibroblasts; experiment: Cytoenhancement and chemoprotection in fibroblasts, WST assay; type: cell-based
Protocol: Cytotoxicity was assessed in GM294 human fibroblasts, 1×10^4 cells per well in 96 well plates, using the WST colorometric assay. […] Data are expressed as the percentage of live cells compared to control samples (without chemotherapy) and each point represents the mean±s.d. of 4 wells.

[3] = test system: B.5 LX-1 cells; experiment: cells; conditions: for EC50: Homo sapiens
Protocol: FIGS. 4A and 4B show cytoenhancement and chemoprotection. […] Cytotoxicity was assessed in cultured LX-1 SCLC cells, 1×10^4 cells per well in 96 well plates, using the WST colorometric assay. BSO cytoenhancement consisted of preincubation at 100 μM BSO for 18 hours. The chemoprotective agent was added immediately after chemotherapy. The experimental conditions were dose/responses for chemotherapy (carboplatin or etoposide phosphate) alone (m), BSO cytoenhancement ( ? ), N-acetylcysteine rescue, (1000 μg/ml N-acetylcysteine, n), or BSO cytoenhancement and N-acetylcysteine rescue (u). Data are expressed as the percentage of live cells compared to untreated control samples without chemotherapy and each point represents the mean±standard deviation of 4 wells.
The effects of BSO cytoenhancement and thiol chemoprotection on the dose/response relationships for cytotoxicity of the alkylating chemotherapeutics were evaluated in the B.5 LX-1 cells. BSO cytoenhancement consisted of preincubation with 100 μM BSO for about 18–24 hours prior to addition of chemotherapy, and rescue consisted of 1000–2000 μg/ml of thiol chemoprotectant added immediately after chemotherapy.
Cytoenhancement and chemoprotection against non-alkylating chemotherapeutic agents was also evaluated.
Half-maximal cytotoxic concentrations (EC50) are expressed as μg/ml. Each EC50 measurement comprised 6 concentrations with 4 wells per concentration, and each dose response was performed in triplicate for each chemotherapeutic agent. Data are reported as the mean±pooled standard deviation for three independent experiments. P values are shown for the reduction in EC50 by BSO treatment (*=P<0.05, **=P<0.01, ***=P<0.001).

[4] = test system: LX-1 SCLC cells; experiment: cells; conditions: for EC50 / Chemoprotective agent EC50: average ± pooled sd of two experiments
Protocol: Cytotoxicity was assessed in cultured LX-1 SCLC cells, 1×10^4 cells per well in 96 well plates, using the WST colorometric assay. […] Chemoprotectant was added at the indicated concentration of N-acetylcysteine shown in FIG. 3A or D-methionine shown in FIG. 3B either alone (n) or immediately following chemotherapy. Data are expressed as the percentage of live cells compared to untreated control samples (without chemotherapy) and each point represents the mean±standard deviation of 4 wells.
The dose/response for rescue from chemotherapy cytotoxicity was evaluated for four different small molecular weight sulfur containing chemoprotectants.
Chemotherapy agents were fixed at the 90% lethal dose for each agent. Each EC50 measurement comprised 6 concentrations with 4 wells per concentration, and each dose response was performed twice for each protectant. EC50 concentrations, in μg/ml are reported as the average±pooled standard deviation for two independent experiments.

[5] = test system: LX-1 SCLC cells
Protocol: Chemotherapy cytotoxicity was assessed in cultured LX-1 SCLC cells (1×10^4 cells/well in 96 well plates) using the WST colorometric assay. […] Cells then received either no protectant (open bars), or sodium thiosulfate, 2000 μg/ml, added immediately (striped bars), 2 hours (black bars) or 4 hours (cross hatched bars) after chemotherapy. Data are expressed as the percentage of live cells compared to control samples (without chemotherapy) and each point represents the mean±standard deviation of 4 wells.
The thiol chemoprotectants were added either concurrently with chemotherapy or up to 8 hours after chemotherapy.

[6] = test system: B.5 LX-1 cells; experiment: In situ TUNEL staining for DNA fragmentation; type: cell-based
Protocol: as §1, §2

[7] = test system: rats; experiment: Protection against chemotherapy-induced myelosuppression, nadir blood counts; type: in vivo, rat; conditions: STS alone; data not shown
Protocol: FIGS. 10A–10D show the results of tests on chemoprotection for chemotherapy-induced myelosuppression. Rats received tri-drug chemotherapy (Carboplatin 200 mg/m2, etoposide phosphate 100 mg/m2, melphalan 10 mg/m2), with (triangles, squares) or without (circles) chemoprotection. Blood counts were determined prior to chemotherapy, at the blood nadir (6 days), and in the recovery phase (9 days after treatment). Chemoprotection was with NAC (1200 mg/kg) administered via aortic infusion 30 min prior to chemotherapy (triangles) or NAC prior to chemotherapy and STS (8 g/m2) immediately after chemotherapy (squares). In FIG. 10B and FIG. 10D animals received BSO (10 mg/kg i.p.×3 d) prior to treatment with chemotherapy. […] Significant difference from the no protectant groups were determined by Wilcoxon/Kruskal-Walliis rank sums tests (*p<0.05, **p<0.01).
Chemoprotection against chemotherapy-induced bone marrow toxicity was determined in BSO treated and untreated animals given i.a. carboplatin, etoposide phosphate, and melphalan. NAC with or without STS was administered either about 30 minutes prior to chemotherapy or immediately after chemotherapy, and was administered either i.v. or by aortic infusion.

[8] = cited from earlier work
[9] = test system: cultured tumor cells; experiment: Paclitaxel cytotoxicity with BSO and NAC (WST); type: cell-based
[10] = read-out: Chemoprotective agent EC50, protection against carboplatin 200 μg/ml (about 90% lethal dose)
[11] = read-out: Chemoprotective agent EC50, protection against cisplatin 15 μg/ml (about 90% lethal dose)

Question: Which “effect on cisplatin- or carboplatin-induced caspase activity” value [1] does the source give for `CCCCS(=N)(=O)CCC(N)C(=O)O` (stereo not drawn) [BSO, buthionine sulfoximine] here?
Answer: No significant amplification of caspase activity

Question: And the “effect on melphalan-induced Caspase-2 activity” value ([1]; BSO pretreatment, low melphalan concentrations)?
Answer: amplified

Question: What about the “effect on toxicity of melphalan, cisplatin and carboplatin” value ([2]; 100 μM for 18 hours pretreatment) of the same compound?
Answer: enhanced the toxicity of all three alkylators

Question: With `N.N.O=C([O-])C1(C(=O)[O-])CCC1.[Pt+2]` [Carboplatin, carboplatin] as the compound, how does the “reduction of EC50 for cytotoxicity by BSO” value ([3]; 100 μM BSO preincubation) read?
Answer: 48%

Question: And the “Chemotherapy EC50 (cytotoxicity)” value ([3]; Without BSO, mean ± pooled sd of three experiments)?
Answer: 103 ± 21 µg/mL

Question: Which EC50 [4, 10] does the source give for `CSCC[C@@H](N)C(=O)O` [D-methionine] here?
Answer: 379 ± 123 µg/mL (≈ 2540 µM)

Question: What about the EC50 [4, 11] of the same compound?
Answer: 140 ± 41 µg/mL (≈ 938 µM)

Question: What about the “reduction of protection against cisplatin compared to simultaneous addition” value ([5]; delayed for 2 hours after cisplatin) of the same compound?
Answer: 41.2±10.2%

Question: And the “reduction of protection against cisplatin compared to simultaneous addition” value ([5]; delayed to 4 hours after cisplatin)?
Answer: 66.1±4.5%

Question: What about the “protection against cisplatin compared to simultaneous addition” value ([5]; pretreatment for 30 min prior to cisplatin) of the same compound?
Answer: did not increase the amount of protection

Question: Which results are given for `CCOC(=O)CNC(=O)[C@H](CS)NC(=O)CC[C@H](N)C(=O)O` [Glutathione ethyl ester]?
Answer: relative effectiveness among the thiol agents tested ([4]; on a μg/ml basis): least effective; Chemoprotective agent EC50 ([4]; protection against carboplatin 200 μg/ml (about 90% lethal dose)): 995 ± 48 µg/mL; Chemoprotective agent EC50 ([4]; protection against cisplatin 15 μg/ml (about 90% lethal dose)): 530 ± 30 µg/mL; Chemoprotective agent EC50 ([4]; protection against melphalan 20 μg/ml (about 90% lethal dose)): 303 ± 124 µg/mL

Question: What does the source list for `N[C@@H](Cc1ccc(N(CCCl)CCCl)cc1)C(=O)O` [Melphalan, melphalan]?
Answer: increase in caspase activity ([1]; 7–8 h after treatment): 50–100%; increase in caspase activity ([1]; 20–24 h after treatment): 250–600%; TUNEL staining positive cells ([6]; BSO treatment prior to melphalan): 800 of 1699; TUNEL staining positive cells ([6]; melphalan treatment without BSO): 29 of 3643; reduction of EC50 for cytotoxicity by BSO [3]: 53%; EC50 ([3]; LX-1, read-out: Chemotherapy EC50 (cytotoxicity), + BSO (100 μM preincubation 18–24 hours), mean ± pooled sd of three experiments): 6.4 ± 0.6 µg/mL; EC50 ([3]; LX-1, read-out: Chemotherapy EC50 (cytotoxicity), Without BSO, mean ± pooled sd of three experiments): 13.8 ± 1.8 µg/mL (≈ 45.2 µM)

Question: For `O=S(O)(O)=S` [STS, sodium thiosulfate], which EC50 [4, 10] is on record?
Answer: 442 ± 203 µg/mL

Question: And the EC50 [4, 11]?
Answer: 86 ± 76 µg/mL

Question: And the EC50 ([4]; read-out: Chemoprotective agent EC50, protection against melphalan 20 μg/ml (about 90% lethal dose))?
Answer: 110 ± 78 µg/mL

Question: And the bone marrow protection [7]?
Answer: did not give consistent bone marrow protection

Question: And the plasma half life ([8]; after a bolus injection)?
Answer: about 17 minutes

Question: And the brain levels ([8]; i.v. administration)?
Answer: < 5 % of blood

Question: And the “protection against melphalan cytotoxicity with delayed addition” value ([5]; melphalan 20 μg/ml, protectant delayed (2 hours for STS))?
Answer: chemoprotection was reduced

Question: And the “protection against platinum (carboplatin, cisplatin) cytotoxicity with delayed addition” value ([5]; protectant delayed (up to 4 hours for STS))?
Answer: still protective

Question: For `COc1cccc2c1C(=O)c1c(O)c3c(c(O)c1C2=O)C[C@@](O)(C(=O)CO)C[C@@H]3O[C@H]1C[C@H](N)[C@H](O)[C@H](C)O1` [doxorubicin], which “BSO enhancement or N-acetylcysteine protection of the agent's cytotoxicity” value [3] is on record?
Answer: no enhancement or protection

Question: With `COc1cc([C@@H]2c3cc4c(cc3[C@@H](O[C@@H]3O[C@@H]5CO[C@@H](C)O[C@H]5[C@H](O)[C@H]3O)[C@H]3COC(=O)[C@H]23)OCO4)cc(OC)c1OP(=O)(O)O` [etoposide phosphate] as the compound, how does the “effect of BSO and N-acetylcysteine on the agent's cytotoxicity” value [2] read?
Answer: neither BSO cytoenhancement nor N-acetylcysteine chemoprotection affected the cytotoxicity

Question: And the “BSO enhancement or N-acetylcysteine protection of the agent's cytotoxicity” value [3]?
Answer: BSO did not increase the cytotoxicity of etoposide phosphate, nor did N-acetylcysteine decrease the cytotoxicity

Question: With `CN(Cc1cnc2nc(N)nc(N)c2n1)c1ccc(C(=O)N[C@@H](CCC(=O)O)C(=O)O)cc1` [methotrexate] as the compound, how does the “BSO enhancement or N-acetylcysteine protection of the agent's cytotoxicity” value [3] read?
Answer: no enhancement or protection

Question: Which growth inhibitory dose ([3]; not altered by BSO) does the source give for `CC(=O)O[C@H]1C(=O)[C@@]2(C)[C@H]([C@H](OC(=O)c3ccccc3)[C@]3(O)C[C@H](OC(=O)[C@H](O)[C@@H](NC(=O)c4ccccc4)c4ccccc4)C(C)=C1C3(C)C)[C@]1(OC(C)=O)CO[C@@H]1C[C@@H]2O` [paclitaxel] here?
Answer: approximately 10 nM

Question: What about the “dose completely cytotoxic in vitro” value ([9]; cells pretreated with BSO) of the same compound?
Answer: ≥ 5 µM

Question: What about the “live cells (WST fluorescence)” value ([9]; paclitaxel dose 5 (unit not given)) of the same compound?
Answer: 1.274 +/− .071

Question: And the “live cells (WST fluorescence)” value ([9]; paclitaxel dose 20 (unit not given))?
Answer: 0.771 +/− .056

Question: And the “concentration at which it begins to be cytotoxic” value ([9]; without BSO)?
Answer: 20 µM

Question: What about the “concentration at which it is completely toxic” value ([9]; without BSO) of the same compound?
Answer: 30 µM
